The target in test [1] is T1, DFsc (2A3H-DFsc), [DFsc-Zn(II)2] (synthetic construct, UniProt Z9QLD2D1S0, H107N).
T1 sequence (Z9QLD2D1S0 1-115 H107N): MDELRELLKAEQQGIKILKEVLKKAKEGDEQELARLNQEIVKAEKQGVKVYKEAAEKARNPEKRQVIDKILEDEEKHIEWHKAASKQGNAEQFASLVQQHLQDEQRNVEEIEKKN
The test is described as follows: UV/vis. Format: binding. Particulars: Zn(II)-bound form; bound as semiquinone derived from 4-t-butylcatechol.

Test [2] has as its target T2, DFsc (2A3H-DFsc), [DFsc-Zn(II)2] (synthetic construct, UniProt Z9QLD2D1S0, H107A).
T2 sequence (Z9QLD2D1S0 1-115 H107A): T1 sequence (Z9QLD2D1S0 1-115 H107N) with N107A
The test can be described thus: UV/vis. The class given is binding. As to conditions: Zn(II)-bound form; bound as semiquinone derived from 4-t-butylcatechol.

Substitutions are numbered along the chain they refer to.

Among the data in publication PMC4857601 (Nature chemistry, 2016) are UV/vis values, retold here.

As for `CC(C)(C)c1ccc(O)c(O)c1`, the UV/vis result in test [1] and in test [2] was “The variants also form a 4-t-butylcatechol-derived SQ• complex” in each case.
